Assay results from article PMC6202246 (Nature chemical biology, 2018).

Tested on: BRD2BD1, BRD2BD2, BRD3BD1, BRD3BD2, BRD4BD1, BRD4BD2 EGFP reporters
Assay: EGFP/mCherry reporter assay across individual BET bromodomains
Format: cell-based, human
Conditions: BRD2/3/4 BD1 and BD2 reporter cells, 5 h

## Cc1sc2c(c1C)C(c1ccc(Cl)cc1)=N[C@@H](CC(=O)NCCCCCCCCNC(=O)COc1cccc3c1C(=O)N(C1CCC(=O)NC1=O)C3=O)c1nnc(C)n1-2 (stereo partly shown) [dBET6]
  activity profile across BET bromodomain reporters: activity on most bromodomains
